Measured values published in patent US8835470B2, “Mandelamide heterocyclic compounds” (Bristol-Myers Squibb Company, priority 2010, dated 2014).
Structures can show the parent of a compound that is named as a salt.

Tests used:
S1P1 [1] = molecular target: T1, S1P1 (Homo sapiens (Human), UniProt P21453); test: Receptor [35S] GTPγS Binding Assay, S1P1; format: biochemical; settings: for EC50: membranes from S1P1/CHO cells, [35S]GTP; for GTPγS S1P3/S1P1: ratio of GTPγS S1P3 EC50 to GTPγS S1P1 EC50, * and ** S1P3 value at detection limit
Experimental: (§1) Receptor [35S] GTPγS Binding Assays
(§2) Membranes prepared from S1P1/CHO cells or EDG3-Ga15-bla HEK293T cells were added to the compound plate (40 μl/well, final protein 3 μg/well) with MULTIDROP®. [^35S]GTP (1250 Ci/mmol, Perkin Elmer) was diluted in assay buffer: 20 mM HEPES, pH7.5, 10 mM MgCl2, 150 mM NaCl, 1 mM EGTA, 1 mM DTT, 10 μM GDP, 0.1% fatty acid free BSA, and 10 μg/ml Saponin to 0.4 nM. 40 μl of the [^35S] GTP solution was added to the compound plate with a final concentration of 0.2 nM. The reaction was kept at room temperature for 45 min. At the end of incubation, all the mixtures in the compound plate were transferred to a 384 well FB filter plates via GPCR robot system. The filter plate was washed with water 4 times by using the modified manifold Embla plate washer and dried at 60° C. for 45 min. 30 μl of MicroScint 20 scintillation fluid was added to each well for counting at Packard TOPCOUNT®.
A larger value for the GTPγS S1P3 EC50 value indicated less activity in the GTPγS S1P3 binding assay.

circulating lymphocytes = test: Blood Lymphocyte Reduction Assay (BLR) in Rodents; format: in vivo; settings: Rattus norvegicus, Lewis rats, oral, 4 hr, vs vehicle group
Experimental: Blood Lymphocyte Reduction Assay (BLR) in Rodents
Lewis rats were dosed orally with test article (as a solution or suspension in the vehicle) or vehicle alone (polyethylene glycol 300, “PEG300”). Blood was drawn at 4 hr by retro-orbital bleeding. Blood lymphocyte counts were determined on an ADVIA® 120 Hematology Analyzer (Siemens Healthcare Diagnostics). The results were measured as a reduction in the percentage of circulating lymphocytes as compared to the vehicle treated group at the 4 hr measurement. The results represent the average results of all animals within each treatment group (n=3-4).
The following examples were tested in the Blood Lymphocyte Reduction assay (BLR) described hereinabove and the results are shown in Table D for rats.

S1P1 [2] = molecular target: T1, S1P1; test: S1P1 Binding Assay; settings: membranes from CHO cells expressing human S1P1; 33P-S1P ligand; rounded to two digits
Experimental: Membranes were prepared from CHO cells expressing human S1P1. Cells were dissociated in buffer containing 20 mM HEPES, pH 7.5, 50 mM NaCl, 2 mM EDTA and Protease Inhibitor cocktail (Roche), and disrupted on ice using the Polytron homogenizer. The homogenate was centrifuged at 20,000 rpm (48,000 G) and the supernatant was discarded. The membrane pellets were resuspended in buffer containing 50 mM HEPES, pH 7.5, 100 mM NaCl, 1 mM MgCl2, 2 mM EDTA and stored in aliquots at −80° C. after protein concentration determination. Membranes (2 μg/well) and 0.03 nM final concentration of ^33P-S1P ligand (1 mCi/ml, American Radiolabeled Chemicals) were added to the compound plates. Binding was performed for 45 minutes at room temperature, terminated by collecting the membranes onto GF/B filter plates, and radioactivity was measured by TOPCOUNT®. The competition data of the test compounds over a range of concentrations was plotted as percentage inhibition of radioligand specific binding. The IC50 is defined as the concentration of competing ligand needed to reduce specific binding by 50%.
The results in Table A were rounded to two digits.

S1P3 = S1P3 (Homo sapiens (Human), UniProt Q99500); test: Receptor [35S] GTPγS Binding Assay, S1P3; format: biochemical; settings: membranes from EDG3-Ga15-bla HEK293T cells; * detection limit 62,500 nM, ** detection limit 32,500 nM
Experimental: as §1
as §2, with “Compounds were loaded in a 384 FALCON® v-bottom plate (0.5 μl/well in a 3-fold dilution). Membranes” for “Membranes”, “TOPCOUNT®. EC50 is defined as the agonist concentration that corresponds to 50% of the Ymax (maximal response) obtained for each individual compound tested.” for “TOPCOUNT®.”
A smaller value for GTPγS S1P1 EC50 value indicated greater activity for the compound in the GTPγS S1P1 binding assay. A larger value for the GTPγS S1P3 EC50 value indicated less activity in the GTPγS S1P3 binding assay.

T1 sequence (P21453 whole entry): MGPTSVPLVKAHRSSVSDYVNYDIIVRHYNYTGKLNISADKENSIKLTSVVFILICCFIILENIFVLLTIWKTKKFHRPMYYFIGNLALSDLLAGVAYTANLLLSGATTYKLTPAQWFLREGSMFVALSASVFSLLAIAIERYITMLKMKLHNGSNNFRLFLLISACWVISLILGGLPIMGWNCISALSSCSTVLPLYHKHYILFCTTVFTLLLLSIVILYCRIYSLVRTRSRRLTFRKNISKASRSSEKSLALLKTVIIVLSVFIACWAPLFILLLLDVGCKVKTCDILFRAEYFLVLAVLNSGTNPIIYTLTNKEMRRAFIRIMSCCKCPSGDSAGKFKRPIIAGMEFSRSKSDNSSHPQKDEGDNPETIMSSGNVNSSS
Sequence of S1P3 (Q99500 whole entry): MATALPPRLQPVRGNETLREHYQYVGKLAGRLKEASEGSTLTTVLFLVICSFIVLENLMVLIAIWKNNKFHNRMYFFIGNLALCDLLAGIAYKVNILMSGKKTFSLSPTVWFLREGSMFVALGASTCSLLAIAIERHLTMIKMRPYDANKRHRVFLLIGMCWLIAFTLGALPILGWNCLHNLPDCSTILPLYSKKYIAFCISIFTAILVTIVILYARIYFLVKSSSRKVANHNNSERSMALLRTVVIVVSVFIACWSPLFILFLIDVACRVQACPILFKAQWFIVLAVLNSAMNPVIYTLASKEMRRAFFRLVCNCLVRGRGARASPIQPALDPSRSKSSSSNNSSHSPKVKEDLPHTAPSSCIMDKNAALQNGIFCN

| SMILES | EC50 (S1P1 [1]) | GTPγS S1P3/S1P1 (S1P1 [1]) | inhibition in vivo at 1 mg/kg (circulating lymphocytes) | IC50 (S1P1 [2]) | EC50 (S1P3) | inhibition in vivo at 3 mg/kg (circulating lymphocytes) |
| --- | --- | --- | --- | --- | --- | --- |
| N#CC1(NC(=O)C(O)c2ccc(-c3noc(-c4onc(-c5ccccc5)c4C(F)(F)F)n3)cc2)CC1 (single isomer, unassigned) [Example 41, N-(1-Cyanocyclopropyl)-2-hydroxy-2-(4-(5-(3-phenyl-4-(trifluoromethyl)isoxazol-5-yl)-1,2,4-oxadiazol-3-yl)phenyl)acetamide] | 15.7 nM | 232 | 80% | 2.6 nM | 3.64 µM | – |
| O=C(NCCC(=O)N1CC(O)C1)C(O)c1ccc(-c2noc(-c3onc(-c4ccccc4)c3C(F)(F)F)n2)cc1 (racemic) [Example 93, (R/S)-2-Hydroxy-N-(3-(3-hydroxyazetidin-1-yl)-3-oxopropyl)-2-(4-(5-(3-phenyl-4-(trifluoromethyl)isoxazol-5-yl)-1,2,4-oxadiazol-3-yl)phenyl)acetamide] | 5.8 nM | 2060 | – | 2.9 nM | 12 µM | 73% |
| C[C@@H](C#N)NC(=O)C(O)c1ccc(-c2noc(-c3onc(-c4ccccc4)c3C(F)(F)F)n2)cc1 (stereo partly drawn) [Example 40, N-((S)-1-Cyanoethyl)-2-hydroxy-2-(4-(5-(3-phenyl-4-(trifluoromethyl)isoxazol-5-yl)-1,2,4-oxadiazol-3-yl)phenyl)acetamide] | – | – | 80% | – | – | – |
| CN(C)C(=O)CCNC(=O)C(O)c1ccc(-c2noc(-c3onc(-c4ccccc4)c3C(F)(F)F)n2)cc1 (single isomer, unassigned) [Example 74, 3-(2-Hydroxy-2-(4-(5-(3-phenyl-4-(trifluoromethyl)isoxazol-5-yl)-1,2,4-oxadiazol-3-yl)phenyl)acetamido)-N,N-dimethylpropanamide] | 1.9 nM | 1805 | – | 0.3 nM | 3.43 µM | 84% |
| O=C(NC1CCS(=O)(=O)C1)C(O)c1ccc(-c2noc(-c3onc(-c4ccccc4)c3C(F)(F)F)n2)cc1 (centres unmarked) [Example 31, 2-Hydroxy-2-(4-(5-(3-phenyl-4-(trifluoromethyl)isoxazol-5-yl)-1,2,4-oxadiazol-3-yl)phenyl)-N-(3,3-dioxide-tetrahydrothiophen-3-yl)acetamide] | 11.9 nM | 802 | 54% | 4.5 nM | 9.54 µM | – |
| O=C(NCCO)C(O)c1ccc(-c2noc(-c3onc(-c4ccccc4)c3C(F)(F)F)n2)cc1 (single isomer, unassigned) [Example 71, 2-Hydroxy-N-(2-hydroxyethyl)-2-(4-(5-(3-phenyl-4-(trifluoromethyl)isoxazol-5-yl)-1,2,4-oxadiazol-3-yl)phenyl)acetamide] | 2 nM | 5234 | 71% | 0.85 nM | 10.5 µM | – |
| O=C(NCc1ncc[nH]1)C(O)c1ccc(-c2noc(-c3onc(-c4ccccc4)c3C(F)(F)F)n2)cc1 (single isomer, unassigned) [Example 17, N-((1H-Imidazol-2-yl)methyl)-2-hydroxy-2-(4-(5-(3-phenyl-4-(trifluoromethyl)isoxazol-5-yl)-1,2,4-oxadiazol-3-yl)phenyl)acetamide-TFA] | 6.7 nM | 1031 | – | 6.7 nM | 6.91 µM | 69% |
| CC(C)(O)CNC(=O)CCNC(=O)C(O)c1ccc(-c2noc(-c3onc(-c4ccccc4)c3C(F)(F)F)n2)cc1 (single isomer, unassigned) [Example 6, 3-(2-Hydroxy-2-(4-(5-(3-phenyl-4-(trifluoromethyl)isoxazol-5-yl)-1,2,4-oxadiazol-3-yl)phenyl)acetamido)-N-(2-hydroxy-2-methylpropyl)propanamide] | 0.67 nM | 4679 | – | 0.46 nM | 3.13 µM | 73% |
| O=C(NC[C@@H]1CCCC[C@H]1O)C(O)c1ccc(-c2noc(-c3cnn(-c4ccccc4)c3C(F)(F)F)n2)cc1 (mixture of isomers) [Example 152, (R/S)-2-hydroxy-N-(((1S,2R)-2-hydroxycyclohexyl)methyl)-2-(4-(5-(1-phenyl-5-(trifluoromethyl)-1H-pyrazol-4-yl)-1,2,4-oxadiazol-3-yl)phenyl)acetamide] | 517 nM | 22 | – | 260 nM | 11.2 µM | – |
| O=C(O)CCNC(=O)C(O)c1ccc(-c2noc(-c3onc(-c4ccccc4)c3C(F)(F)F)n2)cc1 (racemic) [Example 22, (R/S)-3-(2-Hydroxy-2-(4-(5-(3-phenyl-4-(trifluoromethyl)isoxazol-5-yl)-1,2,4-oxadiazol-3-yl)phenyl)acetamido)propanoic acid] | 103 nM | > 604* | – | 29 nM | > 62.5 µM | – |
